From PMC11852716, “c-di-GMP phosphodiesterase ProE interacts with quorum sensing protein PqsE to promote pyocyanin production in Pseudomonas aeruginosa” (mSphere, 2025)
pKd: −log10 of the molar value.

Target: T1, ProE (Pseudomonas aeruginosa, UniProt Q9HTQ9)
T1 construct: gene PA5295
Test: surface plasmon resonance
Assay type: binding

T1 sequence (Q9HTQ9 entry or part of it): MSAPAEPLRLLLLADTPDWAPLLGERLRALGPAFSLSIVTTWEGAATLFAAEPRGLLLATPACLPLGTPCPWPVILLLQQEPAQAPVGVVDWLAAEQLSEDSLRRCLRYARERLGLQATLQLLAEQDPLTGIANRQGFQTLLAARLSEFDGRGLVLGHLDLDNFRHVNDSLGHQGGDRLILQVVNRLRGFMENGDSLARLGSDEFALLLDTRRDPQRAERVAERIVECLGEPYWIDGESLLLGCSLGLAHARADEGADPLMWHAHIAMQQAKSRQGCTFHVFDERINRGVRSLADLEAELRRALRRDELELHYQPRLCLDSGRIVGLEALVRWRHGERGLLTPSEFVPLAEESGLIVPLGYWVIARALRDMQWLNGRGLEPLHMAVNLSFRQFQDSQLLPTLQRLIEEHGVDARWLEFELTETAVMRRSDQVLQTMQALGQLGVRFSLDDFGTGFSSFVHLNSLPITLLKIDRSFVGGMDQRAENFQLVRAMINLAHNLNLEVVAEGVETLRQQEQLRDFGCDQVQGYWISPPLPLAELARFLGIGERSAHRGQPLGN

`Nc1nc2c(ncn2[C@@H]2O[C@@H]3CO[P@](=O)(O)O[C@H]4[C@@H](O)[C@H](n5cnc6c(=O)[nH]c(N)nc65)O[C@@H]4CO[P@](=O)(O)O[C@H]3[C@H]2O)c(=O)[nH]1` [c-di-GMP] was tested, and the pKd was 5.57.
